Results reported in patent US8680089B2, “Fused pyridine derivatives” (Xuanzhu Pharma Co., Ltd., priority 2010, dated 2014).
Read-outs that look alike come from different tables or passages of the source.

Legend:
Type in all cases: biochemical
DPP-IV = DPP-IV (Homo sapiens, UniProt P27487); test: Inhibition to DPP-IV measured by a fluorescence assay (DPPIV-Glo); settings: 66 pM DPP-4, pH 7.5, 10 min preincubation at RT, 30 min reaction, 8 concentrations, assayed twice
Procedure: (§1) The preparation of the reaction solution DPPIV-Glo® buffer should be thawed in advance. The freeze-dried […] should be taken out of the refrigerator in advance and left to room temperature. The DPPIV-Glo® substrate was dissolved in 110 μl water, and mixed thoroughly by votex as a stock solution (the concentration is 10 mmol). The […] was added into an ampoule containing 50 mL DPPIV-Glo™ buffer. Then, 100 μl solution containing DPPIV-Glo™ substrate was mixed with 50 mL DPPIV-Glo™ buffer containing a […] to afford the reaction solution, which needs to be stored in a refrigerator at −20° C.
1. The inhibition to DPP-IV was measured by a fluorescence assay:
(§2) All of the compounds were 10-fold diluted by DMSO before the experiment, and each compound needs to be diluted to 8 concentrations. Before the experiment, the solution containing DPP-IV enzyme was incubated with the mixture of compounds for 10 min at RT. And then, the reaction solution was added and incubated for 30 min. The enzyme was not added to the negative control group. The fluorescence signal was assayed after 30 min. All of the compounds were assayed twice.

DPP-8 = DPP-8 (Homo sapiens, UniProt Q6V1X1); test: Inhibition to DPP-8 measured by a fluorescence assay (DPPIV-Glo); settings: 111.9 pM DPP-8, pH 7.5, 10 min preincubation at RT, 30 min reaction, 8 concentrations, assayed twice
Procedure: as §1
2. The inhibition to DPP-8 was measured by a fluorescence assay:
as §2, with “DPP-8” for “DPP-IV”

DPP-9 = DPP-9 (Homo sapiens, UniProt Q86TI2); test: Inhibition to DPP-9 measured by a fluorescence assay (DPPIV-Glo)
Procedure: as §1
3. The inhibition to DPP-9 was measured by a fluorescence assay:
as §2, with “DPP-9” for “DPP-IV”

[1] = 26 pM DPP-9, pH 7.5, 10 min preincubation at RT, 30 min reaction, 8 concentrations, assayed twice, read-out: IC50 DPP-9

DPP-8, sequence (Q6V1X1 whole entry, species assumed): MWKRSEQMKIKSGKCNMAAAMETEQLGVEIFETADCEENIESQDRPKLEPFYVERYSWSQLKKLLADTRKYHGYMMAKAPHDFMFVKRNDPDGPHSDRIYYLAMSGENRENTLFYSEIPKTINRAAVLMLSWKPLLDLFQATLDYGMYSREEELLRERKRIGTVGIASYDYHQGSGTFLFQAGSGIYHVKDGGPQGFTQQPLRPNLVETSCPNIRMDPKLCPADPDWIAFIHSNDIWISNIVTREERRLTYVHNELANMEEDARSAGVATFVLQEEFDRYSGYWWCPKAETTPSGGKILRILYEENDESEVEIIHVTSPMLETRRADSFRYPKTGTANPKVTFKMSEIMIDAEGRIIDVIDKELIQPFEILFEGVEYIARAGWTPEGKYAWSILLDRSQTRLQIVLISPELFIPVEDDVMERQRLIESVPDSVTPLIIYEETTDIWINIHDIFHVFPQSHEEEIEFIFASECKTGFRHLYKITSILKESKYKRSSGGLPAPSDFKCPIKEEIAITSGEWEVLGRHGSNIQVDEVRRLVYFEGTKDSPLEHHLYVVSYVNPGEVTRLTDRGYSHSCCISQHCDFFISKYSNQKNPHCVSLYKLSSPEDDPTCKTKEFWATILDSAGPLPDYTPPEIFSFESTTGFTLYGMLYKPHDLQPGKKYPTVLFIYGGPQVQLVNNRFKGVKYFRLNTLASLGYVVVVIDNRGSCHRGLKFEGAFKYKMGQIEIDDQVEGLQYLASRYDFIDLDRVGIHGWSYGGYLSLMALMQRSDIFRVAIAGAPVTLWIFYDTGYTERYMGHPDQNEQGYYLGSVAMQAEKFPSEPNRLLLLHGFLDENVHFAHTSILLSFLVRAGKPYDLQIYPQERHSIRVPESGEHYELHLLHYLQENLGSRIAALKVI
DPP-9, sequence (Q86TI2 whole entry, species assumed): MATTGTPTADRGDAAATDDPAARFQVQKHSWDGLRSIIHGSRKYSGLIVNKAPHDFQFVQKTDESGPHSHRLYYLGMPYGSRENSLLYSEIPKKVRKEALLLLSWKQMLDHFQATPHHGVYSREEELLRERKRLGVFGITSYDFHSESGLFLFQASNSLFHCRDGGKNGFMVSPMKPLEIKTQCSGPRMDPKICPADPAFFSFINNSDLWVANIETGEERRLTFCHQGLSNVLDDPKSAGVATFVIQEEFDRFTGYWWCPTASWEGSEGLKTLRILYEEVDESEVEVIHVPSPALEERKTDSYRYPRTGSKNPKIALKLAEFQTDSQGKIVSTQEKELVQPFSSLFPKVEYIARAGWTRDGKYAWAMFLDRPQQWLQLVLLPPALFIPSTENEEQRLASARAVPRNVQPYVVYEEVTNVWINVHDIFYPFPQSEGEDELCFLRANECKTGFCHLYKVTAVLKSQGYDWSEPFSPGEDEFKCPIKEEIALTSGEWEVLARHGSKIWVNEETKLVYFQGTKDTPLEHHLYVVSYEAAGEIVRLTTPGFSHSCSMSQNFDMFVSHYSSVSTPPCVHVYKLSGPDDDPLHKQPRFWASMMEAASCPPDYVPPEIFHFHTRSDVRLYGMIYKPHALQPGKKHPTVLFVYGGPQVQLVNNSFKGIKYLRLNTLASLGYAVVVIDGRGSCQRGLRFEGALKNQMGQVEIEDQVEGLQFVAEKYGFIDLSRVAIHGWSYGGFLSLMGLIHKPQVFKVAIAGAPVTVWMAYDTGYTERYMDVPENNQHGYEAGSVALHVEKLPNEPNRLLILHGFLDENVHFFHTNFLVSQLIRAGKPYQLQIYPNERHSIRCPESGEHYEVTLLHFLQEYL
DPP-IV, sequence (P27487 whole entry, species assumed): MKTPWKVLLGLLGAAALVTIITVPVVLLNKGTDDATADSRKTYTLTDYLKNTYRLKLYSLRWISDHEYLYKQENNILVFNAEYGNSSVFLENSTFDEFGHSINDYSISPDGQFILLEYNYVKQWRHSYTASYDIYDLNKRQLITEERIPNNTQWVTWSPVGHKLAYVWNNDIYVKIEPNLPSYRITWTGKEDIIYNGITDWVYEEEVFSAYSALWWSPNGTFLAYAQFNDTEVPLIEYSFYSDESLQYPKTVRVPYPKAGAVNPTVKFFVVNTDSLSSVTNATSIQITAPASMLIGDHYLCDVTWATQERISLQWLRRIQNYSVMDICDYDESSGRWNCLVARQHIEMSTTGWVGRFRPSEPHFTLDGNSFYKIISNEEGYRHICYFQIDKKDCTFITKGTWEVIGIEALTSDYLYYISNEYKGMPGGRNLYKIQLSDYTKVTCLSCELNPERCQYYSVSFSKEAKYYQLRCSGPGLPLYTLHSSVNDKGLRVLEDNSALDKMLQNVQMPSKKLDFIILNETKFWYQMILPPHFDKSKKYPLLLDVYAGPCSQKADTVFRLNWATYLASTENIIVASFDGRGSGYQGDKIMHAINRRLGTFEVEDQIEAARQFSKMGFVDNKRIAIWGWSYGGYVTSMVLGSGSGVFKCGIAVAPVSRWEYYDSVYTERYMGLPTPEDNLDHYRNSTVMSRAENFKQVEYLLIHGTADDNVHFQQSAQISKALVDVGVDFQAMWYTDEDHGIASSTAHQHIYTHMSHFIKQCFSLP

SMILES | IC50 (DPP-IV) | IC50 (DPP-9; [1]) | IC50 (DPP-8) | IC50 (DPP-9)
CN[C@@H]1CCCN(c2ccnc3c2n(Cc2ccccc2C#N)c(=O)n3C)C1 [Compound 6, (R)-2-[[3-methyl-7-[3-(methylamino)piperidin-1-yl]-2-oxo-2,3-dihydro-1H-imidazo[4,5-b]pyridin-1-yl]methyl]benzonitrile] | – | – | > 100 µM | > 100 µM
Cn1c(=O)n(Cc2ccccc2C#N)c2c(N3CCC[C@@H](N)C3)c3ccccc3nc21 [Compound 18, (R)-2-[[9-(3-aminopiperidin-1-yl)-3-methyl-2-oxo-2,3-dihydro-1H-imidazo[4,5-b]quinolin-1-yl]methyl]benzonitrile] | – | – | > 100 µM | > 100 µM
CC(C)n1c(=O)n(Cc2ccccc2C#N)c2c(N3CCC[C@@H](N)C3)ccnc21 [Compound 2, (R)-2-[[7-(3-aminopiperidin-1-yl)-3-isopropyl-2-oxo-2,3-dihydro-1H-imidazo[4,5-b]pyridin-1-yl]methyl]benzonitrile] | – | – | > 100 µM | > 100 µM
N#Cc1ccccc1Cn1c(=O)[nH]c2nccc(N3CCC[C@@H](N)C3)c21 [Compound 19, (R)-2-[[7-(3-aminopiperidin-1-yl)-2-oxo-2,3-dihydro-1H-imidazo[4,5-b]pyridin-1-yl]methyl]benzonitrile] | – | – | > 100 µM | > 100 µM
N#Cc1ccccc1Cn1c(=O)oc2nccc(N3CCC[C@@H](N)C3)c21 [Compound 11, (R)-2-[[7-(3-aminopiperidin-1-yl)-2-oxo-oxazolo[5,4-b]pyridin-1(2H)-yl]methyl]benzonitrile] | – | – | > 100 µM | > 100 µM
Cn1c(=O)n(Cc2ccccc2F)c2c(N3CCC[C@@H](N)C3)ccnc21 [Compound 3, (R)-1-(2-fluorobenzyl)-7-(3-aminopiperidin-1-yl)-3-methyl-1H-imidazo[4,5-b]pyridin-2(3H)-one] | – | – | > 100 µM | > 100 µM
Cn1c(=O)n(Cc2ccccc2C#N)c2c(N3CCCCC(N)C3)ccnc21 (centres unmarked) [Compound 15, 2-[[7-(3-aminohomopiperidin-1-yl)-3-methyl-2-oxo-2,3-dihydro-1H-imidazo[4,5-b]pyridin-1-yl]methyl]benzonitrile] | – | – | > 100 µM | > 100 µM
Cn1c(=O)n(Cc2ccccc2C#N)c2c(N3CCC[C@@H](N)C3)ccnc21 [Compound 1, (R)-2-[[7-(3-aminopiperidin-1-yl)-3-methyl-2-oxo-2,3-dihydro-1H-imidazo[4,5-b]pyridin-1-yl]methyl]benzonitrile] | – | – | > 100 µM | > 100 µM
Cn1c(=O)n(Cc2ccccc2Cl)c2c(N3CCC[C@@H](N)C3)ccnc21 [Compound 5, (R)-1-(2-chlorobenzyl)-7-(3-aminopiperidin-1-yl)-3-methyl-1H-imidazo[4,5-b]pyridine-2(3H)-one] | – | – | > 100 µM | > 100 µM
Cn1c(=O)n(Cc2ccccc2C#N)c2c(N3CC[C@@H](N)C3)ccnc21 [Compound 12, (R)-2-[[7-(3-aminopyrrolidin-1-yl)-3-methyl-2-oxo-2,3-dihydro-1H-imidazo[4,5-b]pyridin-1-yl]methyl]benzonitrile] | – | – | > 100 µM | > 100 µM

Continued, in another order:

IC50 (DPP-IV) | IC50 (DPP-9; [1]) | SMILES | IC50 (DPP-8) | IC50 (DPP-9)
0.0079 µM | > 100 µM | Cn1c(=O)n(Cc2ccccc2C#N)c2c(N3CCC[C@@H](N)C3)cc(C(=O)O)nc21 [Compound 30, (R)-7-(3-aminopiperidin-1-yl)-1-(2-cyanobenzyl)-3-methyl-2-oxo-2,3-dihydro-1H-imidazo[4,5-b]pyridine-5-formylic acid] | > 100 µM | –
0.0135 µM | > 100 µM | Cn1c(=O)n(Cc2ccccc2C#N)c2c(N3CCC[C@@H](N)C3)cc(CO)nc21 [Compound 29, (R)-2-[[7-(3-aminopiperidin-1-yl)-3-methyl-5-hydroxymethyl-2-oxo-2,3-dihydro-1H-imidazo[4,5-b]pyridin-1-yl]methyl]benzonitrile] | > 100 µM | –
0.0229 µM | > 100 µM | CN(C)c1cc(N2CCC[C@@H](N)C2)c2c(n1)n(C)c(=O)n2Cc1ccccc1C#N [Compound 23, (R)-2-[[7-(3-aminopiperidin-1-yl)-5-(dimethylamino)-3-methyl-2-oxo-2,3-dihydro-1H-imidazo[4,5-b]pyridin-1-yl]methyl]benzonitrile] | > 100 µM | –
0.0569 µM | > 100 µM | CCn1c(=O)n(Cc2ccccc2C#N)c2c(N3CCC[C@@H](N)C3)cc(C)nc21 [Compound 26, (R)-2-[[7-(3-aminopiperidin-1-yl)-3-ethyl-5-methyl-2-oxo-2,3-dihydro-1H-imidazo[4,5-b]pyridin-1-yl]methyl]benzonitrile] | > 100 µM | –
0.0112 µM | > 100 µM | Cc1cc(N2CC[C@@H](N)C2)c2c(n1)n(C)c(=O)n2Cc1ccccc1C#N [Compound 21, (R)-2-[[7-(3-aminopyrrolidin-1-yl)-3,5-dimethyl-2-oxo-2,3-dihydro-1H-imidazo[4,5-b]pyridin-1-yl]methyl]benzonitrile] | > 100 µM | –
0.0089 µM | > 100 µM | Cc1cc(N2CCC[C@@H](N)C2)c2c(n1)n(C)c(=O)n2Cc1ccccc1C#N [Compound 17, (R)-2-[[7-(3-aminopiperidin-1-yl)-3,5-dimethyl-2-oxo-2,3-dihydro-1H-imidazo[4,5-b]pyridin-1-yl]methyl]benzonitrile] | > 100 µM | –
0.545 µM | > 100 µM | Cn1c(=O)n(Cc2cc(F)ccc2F)c2c(N3CCC[C@@H](N)C3)ccnc21 [Compound 4, (R)-1-(2,5-difluorobenzyl)-7-(3-aminopiperidin-1-yl)-3-methyl-1H-imidazo[4,5-b]pyridine-2(3H)-one] | > 100 µM | –
0.422 µM | > 100 µM | Cc1cc(N2CCC[C@@H](NCc3ccccc3C#N)C2)c2c(n1)n(C)c(=O)n2Cc1ccccc1C#N [Compound 31, (R)-7-[3-(2-cyanobenzyl)aminopiperidin-1-yl]-1-(2-cyanobenzyl)-3,5-dimethyl-2-oxo-2,3-dihydro-1H-imidazo[4,5-b]pyridine] | > 100 µM | –
0.01 µM | > 100 µM | Cn1c(=O)n(Cc2ccccc2C#N)c2c(N3CCC[C@@H](N)C3)cc(Cl)nc21 [Compound 22] | > 100 µM | –
0.0193 µM | > 100 µM | CCc1cc(N2CCC[C@@H](N)C2)c2c(n1)n(C)c(=O)n2Cc1ccccc1C#N [Compound 25, (R)-2-[[7-(3-aminopiperidin-1-yl)-5-ethyl-3-methyl-2-oxo-2,3-dihydro-1H-imidazo[4,5-b]pyridin-1-yl]methyl]benzonitrile] | > 100 µM | –
